Measured values as given in PubChem BioAssay AID2060888 (Molecular Pharmacology Branch, DTP, NCI, 2025).
pIC50: −log10 of the molar value. Blank lines part the entries; values can stand above or below the molecule they belong to.

Test system: 695427-040-R-J1-PDC complex spheroid viability
Assay: Anticancer human tumor 695427-040-R-J1-PDC patient-derived colon adenocarcinoma cell line growth inhibition [RAS]
Details: for pIC50: curve of first compound; for viability, T/C: stronger effect = lower value
Source text: RAS pathway inhibitors in Combinations in Complex Spheroids
A high-throughput screen of multi-cell type tumor spheroids was designed to identify active combinations of RAS pathway inhibitors and targeted small molecules. Complex spheroids include a stromal component modeled by human endothelial cells (HUVEC) and fibroblasts modeled by human mesenchymal stem cells (MSCs). The concentration ranges selected for each drug and investigational agent were based upon clinically achievable concentrations if the clinical Cmax of the agent was known.
Compounds. The drugs and investigational agents: abemaciclib (NSC768073), cobimetinib (NSC768068), divarasib (GDC6063, NSC841802), docetaxel (NSC628503), GDC-1971 (RLY-1971, NSC841576), gemcitabine (NSC613327), inavolisib (NSC800729), ipatasertib (NSC767898), KB-0742 (NSC834161), MRTX-1133 (NSC836407), osimertinib (NSC779217), RMC-4630 (NSC839698), RMC-6236 (NSC851965), RMC-6291 (NSC852671), Ro-3306 (NSC812927), sapanisertib (NSC764658), SN-38 (NSC673596), staurosporine (NSC755774), SY5609 (NSC837396), and tovorafenib (DAY101, NSC766906), were obtained from the National Cancer Institute (NCI) Developmental Therapeutics Program Chemical Repository. The FDA-approved anticancer drug set is available from the NCI Developmental Therapeutics Program. […] The stock solutions were prepared in dimethyl sulfoxide (DMSO, Sigma-Aldrich, St. Louis, MO, cat. D2650) at 800-fold the tested concentration and stored at -70 degrees C prior to their use. All drugs and investigational agents were tested over a range starting from a high concentration at or near the clinical Cmax and decreasing in half-log increments. If the clinical Cmax for an agent had not been determined, the highest concentration tested was 10 microM.
Cell Culture. All cells were maintained in an incubator at 37 degrees C and 5% CO2 with 95% humidity. The PDC lines were cultured according to standard operating procedures established by the NCI PDMR. All PDCs were thawed and cultured in Matrigel-coated flasks prepared with a working solution of 1X Ham's F-12 nutrient mix, without supplementation (Invitrogen, Waltham, MA, cat. 11765054), 100 U/mL penicillin-streptomycin (Invitrogen, cat. 15140122), and 2.5% Matrigel (Corning Inc., Corning, NY, cat. 354248) for the first three passages. The 362531-283-R-J2-PDC and 782815-120-R-J1-PDC lines were cultured in 6C/Colon 1B media, which includes advanced DMEM/F-12 (Thermo Fisher Scientific, cat. 12634028), 10 mM HEPES (Thermo Fisher Scientific, cat. 15630080), 1X GlutaMAX supplement (Thermo Fisher Scientific, cat. 35050061), 0.1 mg/mL primocin (InvivoGen, San Diego, CA, cat. ant-pm-2), 10% defined fetal bovine serum, heat inactivated (HyClone Laboratories Inc., Logan, UT, cat. SH30070.03HI), 50% L-WRN conditioned media (ATCC, cat. CRL-3276), 1.25 mM N-Acetyl-L-cysteine (Sigma-Aldrich, cat. A9165), 10 mM nicotinamide (Sigma-Aldrich, cat. N0636), 1X B-27 supplement (Thermo Fisher Scientific, cat. 17504044), 1X N-2 supplement (Thermo Fisher Scientific, cat. 17502048), 50 ng/mL human EGF (Thermo Fisher Scientific, cat. PHG0311), and 10 microM Y-27632 dihydrochloride (Tocris Bioscience, cat. 1254). The K12877-001-R-J1-PDC line was cultured in 6I media, which includes all 6C/Colon 1B media plus 10 ng/mL human FGF-10 (PeproTech, cat. 100-26), 1 ng/mL human FGF-2 (PeproTech, cat. 100-18B), 1 µM prostaglandin E2 (Tocris Bioscience, cat. 2296), […] hydrocortisone (Sigma-Aldrich, cat. H4001), and […] bovine insulin (Sigma-Aldrich, cat. I6634). The K86415-001-R-J1-PDC line was cultured in 6D media, which includes all 6C/Colon 1B media components minus the L-WRN conditioned media. The 485176-168-R4-J1-PDC was cultured in PANC media, which includes all 6C/Colon 1B media plus 100 ng/mL human FGF-10 (PeproTech, cat. 100-26), 500 nM SB-431542 (Selleckchem, cat. S1067), and 10 nM gastrin (Tocris Bioscience, cat. 3006). […]
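Note: viability read after seven days of drug exposure.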
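Throughout, for viability, T/C: 100% = DMSO vehicle control viability.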

pIC50 (second compound 0.000949 µM): < 5.00 | pIC50 (second compound 0.003 µM): < 5.00 | pIC50 (second compound 0.00949 µM): 6.53 | pIC50 (second compound 0.03 µM): 7.44 | pIC50 (second compound 0.0949 µM): > 7.50 | pIC50 (second compound 0.3 µM): > 7.50
SMILES: CC(=O)OC12COC1CC(O)C1(C)C(=O)C(O)C3=C(C)C(OC(=O)C(O)C(NC(=O)OC(C)(C)C)c4ccccc4)CC(O)(C(OC(=O)c4ccccc4)C21)C3(C)C (centres undefined) + CCn1c(-c2cc(N3CCN(C)CC3)cnc2C(C)OC)c2c3cc(ccc31)-c1csc(n1)CC(NC(=O)C1CC1C)C(=O)N1CCCC(N1)C(=O)OCC(C)(C)C2
viability, T/C (second compound 0.000949 µM, first compound 0.0316 µM): 78.2% | viability, T/C (second compound 0.000949 µM, first compound 0.1 µM): 73.5% | viability, T/C (second compound 0.000949 µM, first compound 0.316 µM): 68.7% | viability, T/C (second compound 0.000949 µM, first compound 1 µM): 57.2% | viability, T/C (second compound 0.000949 µM, first compound 3.16 µM): 73.5% | viability, T/C (second compound 0.000949 µM, first compound 10 µM): 52.7% | viability, T/C (second compound 0.003 µM, first compound 0.0316 µM): 81.4% | viability, T/C (second compound 0.003 µM, first compound 0.1 µM): 70.2% | viability, T/C (second compound 0.003 µM, first compound 0.316 µM): 59.7% | viability, T/C (second compound 0.003 µM, first compound 1 µM): 60.6% | viability, T/C (second compound 0.003 µM, first compound 3.16 µM): 56.5% | viability, T/C (second compound 0.003 µM, first compound 10 µM): 65.4% | viability, T/C (second compound 0.00949 µM, first compound 0.0316 µM): 75.3% | viability, T/C (second compound 0.00949 µM, first compound 0.1 µM): 53.5% | viability, T/C (second compound 0.00949 µM, first compound 0.316 µM): 52.1% | viability, T/C (second compound 0.00949 µM, first compound 1 µM): 44.7% | viability, T/C (second compound 0.00949 µM, first compound 3.16 µM): 49.7% | viability, T/C (second compound 0.00949 µM, first compound 10 µM): 34.3% | viability, T/C (second compound 0.03 µM, first compound 0.0316 µM): 58.1% | viability, T/C (second compound 0.03 µM, first compound 0.1 µM): 38.6% | viability, T/C (second compound 0.03 µM, first compound 0.316 µM): 42.1% | viability, T/C (second compound 0.03 µM, first compound 1 µM): 44.8% | viability, T/C (second compound 0.03 µM, first compound 3.16 µM): 42.9% | viability, T/C (second compound 0.03 µM, first compound 10 µM): 36.3% | viability, T/C (second compound 0.0949 µM, first compound 0.0316 µM): 36.5% | viability, T/C (second compound 0.0949 µM, first compound 0.1 µM): 36.6% | viability, T/C (second compound 0.0949 µM, first compound 0.316 µM): 36.4% | viability, T/C (second compound 0.0949 µM, first compound 1 µM): 33.3% | viability, T/C (second compound 0.0949 µM, first compound 3.16 µM): 32.4% | viability, T/C (second compound 0.0949 µM, first compound 10 µM): 29.6% | viability, T/C (second compound 0.3 µM, first compound 0.0316 µM): 35.2% | viability, T/C (second compound 0.3 µM, first compound 0.1 µM): 28.4% | viability, T/C (second compound 0.3 µM, first compound 0.316 µM): 33.9% | viability, T/C (second compound 0.3 µM, first compound 1 µM): 26.9% | viability, T/C (second compound 0.3 µM, first compound 3.16 µM): 30.9% | viability, T/C (second compound 0.3 µM, first compound 10 µM): 27.1%

pIC50 (second compound 0.0316 µM): < 6.00 | pIC50 (second compound 0.1 µM): < 6.00 | pIC50 (second compound 0.316 µM): < 6.00 | pIC50 (second compound 1 µM): < 6.00 | pIC50 (second compound 3.16 µM): < 6.00 | pIC50 (second compound 10 µM): > 8.50
SMILES: CCN1CCN(Cc2ccc(Nc3ncc(F)c(-c4cc(F)c5nc(C)n(C(C)C)c5c4)n3)nc2)CC1 + C#Cc1c(F)ccc2cc(O)cc(-c3ncc4c(N5CC6CCC(C5)N6)nc(OCC56CCCN5CC(F)C6)nc4c3F)c12
viability, T/C (second compound 0.0316 µM, first compound 0.00316 µM): 94.9% | viability, T/C (second compound 0.0316 µM, first compound 0.01 µM): 102% | viability, T/C (second compound 0.0316 µM, first compound 0.0316 µM): 85.8% | viability, T/C (second compound 0.0316 µM, first compound 0.1 µM): 88.4% | viability, T/C (second compound 0.0316 µM, first compound 0.316 µM): 100% | viability, T/C (second compound 0.0316 µM, first compound 1 µM): 106% | viability, T/C (second compound 0.1 µM, first compound 0.00316 µM): 93% | viability, T/C (second compound 0.1 µM, first compound 0.01 µM): 92.9% | viability, T/C (second compound 0.1 µM, first compound 0.0316 µM): 90.5% | viability, T/C (second compound 0.1 µM, first compound 0.1 µM): 79.4% | viability, T/C (second compound 0.1 µM, first compound 0.316 µM): 91.6% | viability, T/C (second compound 0.1 µM, first compound 1 µM): 96.3% | viability, T/C (second compound 0.316 µM, first compound 0.00316 µM): 83.1% | viability, T/C (second compound 0.316 µM, first compound 0.01 µM): 85.3% | viability, T/C (second compound 0.316 µM, first compound 0.0316 µM): 78.1% | viability, T/C (second compound 0.316 µM, first compound 0.1 µM): 78.6% | viability, T/C (second compound 0.316 µM, first compound 0.316 µM): 77.7% | viability, T/C (second compound 0.316 µM, first compound 1 µM): 85.6% | viability, T/C (second compound 1 µM, first compound 0.00316 µM): 75.2% | viability, T/C (second compound 1 µM, first compound 0.01 µM): 68.1% | viability, T/C (second compound 1 µM, first compound 0.0316 µM): 61% | viability, T/C (second compound 1 µM, first compound 0.1 µM): 60.5% | viability, T/C (second compound 1 µM, first compound 0.316 µM): 74.1% | viability, T/C (second compound 1 µM, first compound 1 µM): 71.3% | viability, T/C (second compound 3.16 µM, first compound 0.00316 µM): 53.3% | viability, T/C (second compound 3.16 µM, first compound 0.01 µM): 52.9% | viability, T/C (second compound 3.16 µM, first compound 0.0316 µM): 51.2% | viability, T/C (second compound 3.16 µM, first compound 0.1 µM): 48.2% | viability, T/C (second compound 3.16 µM, first compound 0.316 µM): 50.6% | viability, T/C (second compound 3.16 µM, first compound 1 µM): 62% | viability, T/C (second compound 10 µM, first compound 0.00316 µM): 41.1% | viability, T/C (second compound 10 µM, first compound 0.01 µM): 45.2% | viability, T/C (second compound 10 µM, first compound 0.0316 µM): 36.4% | viability, T/C (second compound 10 µM, first compound 0.1 µM): 33.1% | viability, T/C (second compound 10 µM, first compound 0.316 µM): 30.8% | viability, T/C (second compound 10 µM, first compound 1 µM): 32.6%
